Assay results from patent US20230295162A1 (EÖTVÖS LORÁND TUDOMÁNYEGYETEM, priority 2020, published 2023).

Assays:
[1] = tested on: DU 145 (prostate, carcinoma) cells; assay: Cell viability assay, CellTiter-Glo (Example 21); format: cell-based, human; details: 72 h
Procedure, shortened: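 DU 145 prostate carcinoma cells were plated at 1000 cells/well in white flat-bottom 96 well plates and exposed to compound. Viability was then determined by CellTiter-Glo® luminescence on a BioTek Synergy 2 reader, and dose-response curves were fitted in GraphPad Prism 8.4.2 with a four-parameter variable-slope non-linear regression.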

[2] = tested on: SCC-25 (tongue, squamous cell carcinoma) cells; assay: Cell viability assay, CellTiter-Glo (Example 21); format: cell-based, human; details: 72 h treatment
Procedure, shortened: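 Cell viability of SCC-25 cells was assessed by CellTiter-Glo luminescence after compound exposure. Cells were plated at 1000 cells/well, a density chosen for their size and growth rate, on white flat-bottom 96 well plates. Signal was recorded on a microplate reader, and dose-response curves were fitted in GraphPad Prism by four-parameter variable-slope non-linear regression.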

[3] = tested on: MIA PaCa-2 (pancreas, carcinoma) cells; assay: Cell viability assay, CellTiter-Glo (Example 21); format: cell-based, human; details: 72 h treatment
Procedure, shortened: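 Cell viability of MIA PaCa-2 cells was assessed by CellTiter-Glo® luminescence (Promega, Madison, WI, USA). Cells were plated at 1000 cells/well, a density chosen for their size and growth rate, in white flat-bottomed 96 well plates. After treatment, the signal was recorded on a BioTek microplate reader, and dose-response curves were fitted in GraphPad Prism 8.4.2 with a four-parameter variable-slope non-linear regression.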

[4] = tested on: MDA-MB-231 (breast, adenocarcinoma) cells; assay: Cell viability assay, CellTiter-Glo (Example 21); format: cell-based, human; details: 72 h treatment
Procedure, shortened: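 Viability of MDA-MB-231 cells was quantified by luminescence using Promega's CellTiter-Glo® kit per manufacturer instructions. Cells, plated at a size- and growth-optimized density of 1500 cells/well in white flat-bottom 96 well plates, were treated and then read on a BioTek Synergy 2 reader; dose-response curves used four-parameter variable-slope non-linear regression in GraphPad Prism 8.4.2.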

[5] = tested on: MiaPaCa2 pancreatic cancer cell line; assay: CellTiter-Glo IC50 (Example 19); format: cell-based; details: Homo sapiens, MIA PaCa-2, 72 h
Procedure, shortened: (§1)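 Following treatment of 1000-cell/well cultures at 37° C, 5% CO2, CellTiter-Glo replaced the medium and luminescence was recorded. Data normalised to untreated controls; IC50 by variable-slope regression.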

[6] = tested on: HCC827 lung carcinoma cell line; assay: CellTiter-Glo IC50 (Example 19); format: cell-based; details: Homo sapiens, 72 h
Procedure, shortened: as §1

[7] = tested on: PC3 human prostate cancer cell line; assay: CellTiter-Glo IC50 (Example 19); format: cell-based; details: 72 h
Procedure, shortened: as §1

[8] = tested on: H1993 lung carcinoma cell line; assay: CellTiter-Glo IC50 (Example 19); format: cell-based; details: Homo sapiens, NCI-H1993, 72 h
Procedure, shortened: as §1

[9] = tested on: LNCap human prostate cancer cell line; assay: CellTiter-Glo IC50 (Example 19); format: cell-based; details: 72 h
Procedure, shortened: as §1

[10] = tested on: H520 lung carcinoma cell line; assay: CellTiter-Glo IC50 (Example 19); format: cell-based; details: Homo sapiens, NCI-H520, 72 h
Procedure, shortened: as §1

[11] = tested on: A549 lung carcinoma cell line; assay: CellTiter-Glo IC50 (Example 19); format: cell-based; details: Homo sapiens, 72 h
Procedure, shortened: as §1

[12] = tested on: BxPC3 pancreatic cancer cell line; assay: CellTiter-Glo IC50 (Example 19); format: cell-based; details: Homo sapiens, BXPC-3, 72 h
Procedure, shortened: as §1

[13] = tested on: PANC-1 (human pancreatic carcinoma) cells; assay: Impedance-based viability assay (xCELLigence SP), long treatment; format: cell-based; details: 72 h, read-out: cytotoxicity expressed in IC50, PANC-1
From the text: (Gibco®/Invitrogen Corporation, New York, NY, USA).
Data obtained from each experiment represent mathematical averages.

[14] = tested on: representative cell lines; assay: Cytotoxicity on representative cell lines (summary statement); format: cell-based; details: Homo sapiens; summary range, ca.
[15] = tested on: MDA-MB-231 breast cancer cell line; assay: CellTiter-Glo IC50 (Table 3); format: cell-based; details: Homo sapiens
Procedure, shortened: as §1

[16] = tested on: MDA-MB-453 breast cancer cell line; assay: CellTiter-Glo IC50 (Table 3); format: cell-based; details: Homo sapiens
Procedure, shortened: as §1

SMILES: O=C1C2=C(CCN(Cc3cc(F)cc(F)c3)C2)N2CCN=C2N1Cc1ccc(C(F)(F)F)cc1 [I/30, 7-(3,5-Difluorobenzyl)-4-(4-(trifluoromethyl)benzyl)-2,4,6,7,8,9-hexahydroimidazo[1,2-a]pyrido[3,4-e]pyrimidin-5(1H)-one]
- DU 145 cell viability ([1]; 3.7 nM): 37.2 ± 10.4 % of control
- DU 145 cell viability ([1]; 11.1 nM): 7.0 ± 0.9 % of control
- DU 145 cell viability ([1]; 100 nM): 7.0 ± 1.1 % of control
- DU 145 cell viability ([1]; 300 nM): 8.0 ± 2.9 % of control
- SCC-25 (tongue, squamous cell carcinoma) cell viability (% of control) ([2]; 3.7 nM): 78.7 ± 15.0 % of control
- SCC-25 (tongue, squamous cell carcinoma) cell viability (% of control) ([2]; 11.1 nM): 35.0 ± 14.5 % of control
- SCC-25 (tongue, squamous cell carcinoma) cell viability (% of control) ([2]; 100 nM): 32.9 ± 2.1 % of control
- SCC-25 (tongue, squamous cell carcinoma) cell viability (% of control) ([2]; 300 nM): 36.3 ± 2.6 % of control
- MIA PaCa-2 (pancreas, carcinoma) cell viability (% of control) ([3]; 3.7 nM): 65.7 ± 12.6 % of control
- MIA PaCa-2 (pancreas, carcinoma) cell viability (% of control) ([3]; 11.1 nM): 19.1 ± 8.0 % of control
- MIA PaCa-2 (pancreas, carcinoma) cell viability (% of control) ([3]; 100 nM): 16.7 ± 6.7 % of control
- MIA PaCa-2 (pancreas, carcinoma) cell viability (% of control) ([3]; 300 nM): 17.6 ± 7.6 % of control
- MDA-MB-231 (breast, adenocarcinoma) cell viability (% of control) ([4]; 3.7 nM): 100.0 ± 4.5 % of control
- MDA-MB-231 (breast, adenocarcinoma) cell viability (% of control) ([4]; 11.1 nM): 59.9 ± 2.1 % of control
- MDA-MB-231 (breast, adenocarcinoma) cell viability (% of control) ([4]; 100 nM): 52.1 ± 1.8 % of control
- MDA-MB-231 (breast, adenocarcinoma) cell viability (% of control) ([4]; 300 nM): 52.6 ± 2.5 % of control
- IC50 [5]: 3 nM
- IC50 [6]: 5 nM
- IC50 [7]: 2 nM
- IC50 [8]: 4 nM
- IC50 [9]: 2 nM
- IC50 [10]: 3 nM
- IC50 [11]: 4 nM
- IC50 [12]: 4 nM
- IC50 [13]: 4 nM
- IC50 [14]: 3 to 8 nM
- melting point: 168 °C
- IC50 [15]: < 1 nM
- IC50 [16]: < 1 nM
